From patent US10005733B2, “N-(4-hydroxy-4-methyl-cyclohexyl)-4-phenyl-benzenesulfonamide and N-(4-hydroxy-4-methyl-cyclohexyl)-4-(2-pyridyl)-benzenesulfonamide compounds and their therapeutic use” (PIMCO 2664 LIMITED, priority 2014, dated 2018) come the findings set out here.

The structures appear in SMILES notation. Where two headings read alike, the source gives them in different places.

The nature of series [1]: Rodent Pharmacokinetics Studies. The format is in vivo, rat. The note with it: for bioavailability / half-life: rat, plasma; for bioavailability: read-out: Bioavail, F (%). As for the experimental part:
Absorption and metabolic stability were studied using an in vivo pharmacokinetics assay.
[…] […] For compound HMC-C-01-A the oral administration was formulated in 2% dimethylacetamide/20% hydroxypropyl-β-cyclodextrin in water. Animals were given free access to food throughout the study except for fasting overnight and until 2 hours post dose on the day of dosing.
Blood samples were taken from the retro-orbital plexus at the following time points and placed in microtubes containing 20% K2EDTA solution: […]
Blood samples were centrifuged to obtain plasma, which was transferred to a separate container and frozen at −20° C.
For analysis, samples were thawed at room temperature and prepared by protein precipitation with acetonitrile spiked with internal standard (500 ng/mL glipizide) in the ratio 1:4 with plasma. The samples were then vortexed for 5 minutes and centrifuged for 10 minutes at 20,600×g at 4° C. 100 μL of the supernatant was collected for analysis.
The pharmacokinetic parameters for the test compounds were calculated by Phoenix WinNonlin version 6.3 (Pharsight Corp, CA) using standard non-compartmental methods. Peak plasma concentrations (Cmax) and time of the peak plasma concentration (Tmax) were the observed values. The area under the plasma concentration-time curve (AUC) was determined by use of the linear trapezoidal rule up to the last measurable concentration (AUClast) and thereafter by extrapolation of the terminal elimination phase to infinity (AUCinf). The terminal elimination rate constant (kel) was determined by regression analysis of the linear terminal portion of the log plasma concentration-time curve. The elimination phase half-life (t1/2) was calculated as 0.693/kel.

Series [2] concerns the target T1, CYP2C9 (Homo sapiens, UniProt P11712).
T1 construct: purchased Cypex Ltd, Dundee, Scotland UK
The series can be described thus: Human Cytochrome P450 Inhibition Assay (Bactosomes), CYP2C9. The format is in vitro ADME. The note with it: recombinant Bactosomes, probe substrate, 10 minutes at 37° C. As for the experimental part:
The ability of test compounds to inhibit five of the most relevant cytochrome P450 enzymes was measured by determination of the activity of cytochrome P450 enzymes in recombinant cytochrome preparations, called Bactosomes (Cypex Ltd, Dundee, Scotland UK DD2 1NH), in the presence of a specific probe substrate. Bactosomes are a highly efficient and cost-effective source of recombinant CYP450s which have a higher specific activity of enzyme compared to other sources, such as liver microsomes. […] The following CYP450 isoforms were assayed: CYP1A2, CYP2C9, CYP2C19, CYP2D6 and CYP3A4. The study of CYP450 inhibition potential in Bactosomes is accepted as a valuable model permitting rapid prediction of potential drug-drug interactions in vivo (see, e.g., Weaver et al., 2003).
Bactosomes were obtained from a commercial source (Cypex, Scotland, UK). Test compounds were incubated with Bactosomes at 6 concentrations. Samples were incubated for 10 minutes, after which the reaction was stopped and the samples analysed by LC-MS/MS Multiple Reaction Monitoring (MRM) for the presence/amount of substrate probe.
CYP450 enzymes (final protein 75 pmol/mL for CYP1A2; 12.5 pmol/mL for CYP2C19; and 25 pmol/mL for CYP2C9, 2D6 and 3A4), 0.1 M phosphate buffer pH 7.4, probe and test compound (final concentration 50, 15.8, 5, 1.58, 0.5 and 0.158 μM; diluted from 10 mM stock solution to give a final DMSO concentration of 1%) were pre-incubated at 37° C. for 5 minutes. The reaction was initiated by the addition of 20 μL of 10 mM NADPH in phosphate buffer. The final incubation volume was 200 μL. The following control inhibitors were used for each CYP450 inhibition assay: CYP1A2: α-naphthoflavone; CYP2C9: sulfaphenazole; CYP2C19: tranylcypromine; CYP2D6: quinidine; CYP3A4: ketoconazole.
Each compound was incubated for 10 minutes at 37° C. The reactions were stopped by the addition of methanol (final composition 1:1, aqueous: methanol). The incubation plates were shaken, chilled at […] for 2 hours, and centrifuged at 3500 rpm for 15 minutes at 4° C. to precipitate the protein.
IC50 values were determined by linear transformation within Microsoft Excel.

The test system of series [3] is mice with collagen-induced arthritis. The series can be described thus: Mouse Collagen-Induced Arthritis. The format is in vivo. The following applies: for % inhibition of disease: oral gavage once daily for 14 days, arthritic index vs control. As for the experimental part: Seven- to eight-week-old male DBA/1j mice were used for all procedures. Animals were housed in groups of 10, and were maintained at 21° C.±2° C. on a 12-hour light/dark cycle with food and water ad libitum. Complete Freund's adjuvant (CFA) was prepared by emulsifying bovine type II collagen at 4 mg/mL with a 4 mg/mL suspension of Mycobacterium tuberculosis H37Ra in Incomplete Freund's adjuvant (IFA) (0.85 mL paraffin oil and 0.15 mL mannide monooleate) in a 1:1 (v/v) ratio. All mice were immunised subcutaneously with 200 μg of bovine type II collagen in CFA. 21 days later, all mice were immunised subcutaneously with 100 μg of bovine type II collagen in IFA. The mice started to develop signs and symptoms of arthritis following the ‘booster’ immunisation.
For macroscopic assessment of arthritis, the following signs were monitored in each paw of each mouse three times per week and summed to generate the Arthritic Index (AI) (the maximum AI for one animal is 16): • 0=no visible effects of arthritis. • 1=oedema and/or erythema of 1 digit. • 2=oedema and/or erythema of 2 digits. • 3=oedema and/or erythema of more than 2 digits. • 4=severe arthritis of entire paw and digits.
Animals were sorted into treatment groups with a mean arthritic index of 2.5 and then dosed once daily for 14 days with compound by oral gavage for test compounds, or by subcutaneous injection at a dose of 10 mg/kg for the positive control, etanercept. After completion of the experiment, the mice were sacrificed.
The data were analysed by generating an average of the arthritic index across each treatment group. The mean arthritic index was then compared to the arthritic index of control (untreated) animals using the following formula to generate a percentage inhibition of disease.

The mark [4] stands for this setting: male Han Wistar rats, 1 mg/kg intravenous, 5% DMSO/10% solutol in saline.
Setting [5] is: male Han Wistar rats, 5 mg/kg orally, 0.5% CMC/0.1% Tween-80.
The mark [6] stands for this setting: 5 mg/kg, male Han Wistar rats, oral in 0.5% CMC/0.1% Tween-80, i.v. in 5% DMSO/10% solutol in saline.

T1 sequence (P11712 whole entry): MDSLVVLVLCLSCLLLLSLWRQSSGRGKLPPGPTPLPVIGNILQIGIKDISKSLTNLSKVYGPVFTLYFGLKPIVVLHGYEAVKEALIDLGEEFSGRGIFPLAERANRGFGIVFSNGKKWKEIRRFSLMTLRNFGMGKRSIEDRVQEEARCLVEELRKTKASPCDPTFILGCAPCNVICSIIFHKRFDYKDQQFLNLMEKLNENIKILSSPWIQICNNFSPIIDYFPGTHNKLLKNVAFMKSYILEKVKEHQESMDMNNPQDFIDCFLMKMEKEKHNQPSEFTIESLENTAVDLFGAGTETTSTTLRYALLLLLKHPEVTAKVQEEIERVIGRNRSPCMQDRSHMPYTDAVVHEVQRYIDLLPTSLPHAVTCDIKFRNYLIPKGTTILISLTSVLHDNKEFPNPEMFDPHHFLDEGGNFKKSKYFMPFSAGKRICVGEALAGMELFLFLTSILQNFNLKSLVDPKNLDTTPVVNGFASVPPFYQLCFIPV

By IC50 is commonly meant the concentration at which inhibition is half-maximal. Regarding `Cc1cc(S(=O)(=O)N[C@H]2CC[C@H](O)CC2)ccc1-c1ccc(F)cc1F` [ABD735, reference compound], the “i.v. AUC” value in series [1] (setting [4]) came out at 1081 ng/mL/min. Moreover, the “p.o. AUC (ng/mL/min)” value in series [1] (setting [5]) was 8965 ^(4) ng/mL/min. In series [1] (setting [6]), the bioavailability is 83%. Further, the IC50 in series [2] is 25 µM. For the same compound, in series [3] (10 mg/kg/day), the “% inhibition of disease” value stood at 44%.
For `C[C@]1(O)CC[C@@H](NS(=O)(=O)c2ccc(-c3cc(F)c(F)cc3F)cc2)CC1` [HMC-C-10-B, 2′,4′,5′-Trifluoro-N-((1s,4s)-4-hydroxy-4-methylcyclohexyl)-[1,1′-biphenyl]-4-sulfonamide], the IC50 in series [2] was 2.4 µM.
The same measure, in the same setting: the figure for `C[C@]1(O)CC[C@H](NS(=O)(=O)c2ccc(-c3ccc(Cl)cc3C#N)c(Cl)c2)CC1` [HMC-C-11-A, 2,4′-Dichloro-2′-cyano-N-((1r,4r)-4-hydroxy-4-methylcyclohexyl)-[1,1′-biphenyl]-4-sulfonamide] is 2.7 µM; for `O=S(=O)(N[C@H]1CC[C@H](O)CC1)c1ccc(-c2ccc(F)cc2F)cc1` [ABD599, reference compound] it is 9.5 µM.
With `C[C@]1(O)CC[C@H](NS(=O)(=O)c2ccc(-c3ccc(C#N)cc3)c(F)c2)CC1` [HMC-C-07-A, 4′-Cyano-2-fluoro-N-((1r,4r)-4-hydroxy-4-methylcyclohexyl)-[1,1′-biphenyl]-4-sulfonamide], in series [2], the IC50 was above 50 µM.
For the compound `C[C@]1(O)CC[C@H](NS(=O)(=O)c2ccc(-c3ccc(Cl)cc3C#N)c(F)c2)CC1` [HMC-C-08-A, 4′-Chloro-2′-cyano-2-fluoro-N-((1r,4r)-4-hydroxy-4-methylcyclohexyl)-[1,1′-biphenyl]-4-sulfonamide], the IC50 in series [2] is 6.7 µM.
As a reminder, the half-life is how long it takes for the measured level to halve. A higher half-life goes with slow decline. On to `C[C@]1(O)CC[C@H](NS(=O)(=O)c2ccc(-c3ncc(Cl)cc3C#N)cc2)CC1` [HMC-N-05-A, 4-(5-Chloro-3-cyanopyridin-2-yl)-N-((1r,4r)-4-hydroxy-4-methylcyclohexyl)benzenesulfonamide], for which the bioavailability in series [1] (male, Han Wistar, 5 mg/kg, rats, footnote (1): 5% DMSO/10% solutol in saline for both oral and intravenous routes) turned out to be 88%. In series [1] (male, Han Wistar, rats, footnote (1): 5% DMSO/10% solutol in saline for both routes), the half-life is 0.8 h. In addition, the “i.v. AUC” value in series [1] (rats, 1 mg/kg i.v., footnote (1): 5% DMSO/10% solutol in saline) is listed as 891 ng/mL/min. Also, the “p.o. AUC” value in series [1] (rats, 5 mg/kg orally, footnote (1): 5% DMSO/10% solutol in saline) is 3937 ng/mL/min. The IC50 in series [2] came to 27 µM.
In the case of `C[C@]1(O)CC[C@H](NS(=O)(=O)c2ccc(-c3ccc(C#N)cc3Cl)cc2)CC1` [HMC-C-09-A, 2′-Chloro-4′-cyano-N-((1r,4r)-4-hydroxy-4-methylcyclohexyl)-[1,1′-biphenyl]-4-sulfonamide], the IC50 in series [2] is 34 µM.
Take `C[C@]1(O)CC[C@@H](NS(=O)(=O)c2ccc(-c3ccc(C#N)cc3)c(F)c2)CC1` [HMC-C-07-B, 4′-Cyano-2-fluoro-N-((1s,4s)-4-hydroxy-4-methylcyclohexyl)-[1,1′-biphenyl]-4-sulfonamide]: the bioavailability in series [1] (male, Han Wistar, iv, 5 mg/kg, rats, footnote (3): i.v. samples at 0.03, 0.1, 0.167, 0.25, 0.5, 1, 2, 4, 6, 8, 24 hours) amounted to 86%; in series [1] (male, Han Wistar, rats, footnotes (1)(2): 5% DMSO/10% solutol in saline for both routes, sampling incl. 23 and 24 hours, oral 10 mg/kg), 100%. In addition, the half-life is 9.7 h in series [1] (male, Han Wistar, rats, footnotes (1)(2): 5% DMSO/10% solutol in saline for both routes) and 9 h in series [1] (male, Han Wistar, rats, study of footnote (3)). The “i.v. AUC” value amounted to 11627 ng/mL/min in series [1] (rats, 1 mg/kg i.v., footnote (3): i.v. samples at 0.03, 0.1, 0.167, 0.25, 0.5, 1, 2, 4, 6, 8, 24 hours); 24072 ng/mL/min in series [1] (rats, footnotes (1)(2): 1 mg/kg i.v. in 5% DMSO/10% solutol in saline, sampling incl. 23 and 24 hours). Besides, the “p.o. AUC” value in series [1] (rats, 5 mg/kg orally, study of footnote (3)) is on record as 39463 ng/mL/min. For the same compound, in series [1] (rats, footnotes (1)(2)(5): dosed at 10 mg/kg orally in 5% DMSO/10% solutol in saline), the “p.o. AUC (ng/mL/min)” value is recorded as 146299 ^(5) ng/mL/min. For the same compound, the half-inhibitory concentration (IC50) in series [2] was above 50 µM. Also, the “% inhibition of disease” value is given as 16% in series [3] (0.3 mg/kg/day) and 56% in series [3] (3 mg/kg/day). In addition, the “signs and symptoms of disease (in words)” value in series [3] (compared with Etanercept (10 mg/kg s.c.), FIG. 1 and 2) is “able to reduce signs and symptoms of disease in mice with collagen-induced arthritis to a similar extent as the clinically utilised treatment, Etanercept”.
Consider `C[C@]1(O)CC[C@@H](NS(=O)(=O)c2ccc(-c3ccc(F)cc3F)cc2)CC1` [ABD899, reference compound], for which, in series [1] (setting [4]), the “i.v. AUC” value came out at 2133 ng/mL/min. Also, the “p.o. AUC (ng/mL/min)” value in series [1] (setting [5]) was 10740 ^(4) ng/mL/min. The bioavailability in series [1] (setting [6]) was 50%. Also, the IC50 in series [2] amounted to 3.9 µM. For the same compound, in series [3] (10 mg/kg/day), the “% inhibition of disease” value turned out to be 77%.
